This experiment deals with T1, TXA2 receptors of human platelets (Homo sapiens, UniProt P21731).
T1 construct: Human platelets incubate in the presence of a single concentration; endogenous in cells; host or cells: human platelets
T1 sequence (P21731 1-343): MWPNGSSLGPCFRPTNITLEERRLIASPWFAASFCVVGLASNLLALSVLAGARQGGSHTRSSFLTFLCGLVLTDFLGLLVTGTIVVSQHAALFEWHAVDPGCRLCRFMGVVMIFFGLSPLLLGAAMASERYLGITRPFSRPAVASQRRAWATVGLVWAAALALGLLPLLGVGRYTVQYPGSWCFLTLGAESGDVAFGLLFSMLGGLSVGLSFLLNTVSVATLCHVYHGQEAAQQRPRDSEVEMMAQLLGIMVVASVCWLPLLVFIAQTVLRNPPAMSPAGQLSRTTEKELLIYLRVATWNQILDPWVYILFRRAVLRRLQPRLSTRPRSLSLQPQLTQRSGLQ
Nature of the experiment: displacement of radioligand [^125 I]PTA-OH specifically bound to the TXA2 receptors of human platelets. It is filed as binding. Particulars: for inhibition at 10 µM / inhibition at 0.1 µM: 0.5 h, 30 minutes at 37° C; for inhibition at 10 µM: 1E-5 M competing agent, read-out: % displacement, Concentration 1E-5 M; for inhibition at 0.1 µM: 1E-7 M competing agent, read-out: % displacement, Concentration 1E-7 M; for Ki: determined according to the formula of CHENG and PRUSOFF, read-out: Ki (inhibition constant). The procedure:
The affinity of the products of the Examples described for thromboxane A2 receptors is evaluated by the technique of displacing a radioligand specifically bound to the TXA2 receptors of human platelets. […] The reaction is completed by the addition of a buffer, followed by rapid filtration through […] filters. […] The results are expressed, for the doses tested, as the percentage displacement of the radioligand specifically bound to the TXA2 receptors of human platelets.

Experimental findings from patent publication US5128359A, “Benzimidazole and azabenzimidazole derivatives which are thromboxane receptor antagonists, their methods of preparation” (Laboratoires UPSA, priority 1990, dated 1992) are described below.

`O=C(O)[C@@H]1CC[C@H]1c1nc2cc(F)ccc2n1Cc1ccc(Cl)cc1` (relative stereo) [Example 90, Trans-2-[1 (4-chlorobenzyl)-5-fluorobenzimidazol-2-yl]cyclobutane-1 carboxylic acid]: the inhibition at 10 µM turned out to be 97%, the inhibition at 0.1 µM turned out to be 2% and the Ki amounted to 1180 nM.

For `O=C(O)[C@@H]1CCC[C@H]1c1nc2cc(F)ccc2n1Cc1ccc(Cl)cc1` (relative stereo) [Example 153, Trans 2-[1-(4-chlorobenzyl)-5-fluorobenzimidazol-2-yl]cyclopentane-1-carboxylic acid], the inhibition at 10 µM amounted to 100% and the inhibition at 0.1 µM is 37%.

Take `O=C(O)[C@@H]1CC=CC[C@@H]1c1nc2cc(F)ccc2n1Cc1ccc(Cl)cc1` (relative stereo) [Example 161, Cis-5-[1-(4-chlorobenzyl)-5-fluorobenzimidazol-2-yl]cyclohexene-4-carboxylic acid]: the inhibition at 10 µM was 96% and the inhibition at 0.1 µM is 15%.

`CC(C)(CC(=O)O)Cc1nc2ccccc2n1Cc1ccccc1` [Example 58, 4-(1 Benzylbenzimidazol-2-yl)-3,3-dimethylbutanoic acid]: the inhibition at 10 µM stood at 95% and the inhibition at 0.1 µM was determined as 13%.

`O=C(O)CCCCSc1nc2cc(F)ccc2n1Cc1ccc(Cl)cc1` [Example 59, 5-[1-(4-Chlorobenzyl)-5-fluorobenzimidazol-2-yl]mercaptopentanoic acid]: the inhibition at 10 µM was found to be 100% and the inhibition at 0.1 µM was 28%.

Turning to `O=C(O)CCCSc1nc2ccccc2n1Cc1ccc(Cl)cc1` [Example 63, 4-[1-(4-Chlorobenzyl)benzimidazol-2-yl]mercaptobutanoic acid], the inhibition at 10 µM worked out at 97% and the inhibition at 0.1 µM turned out to be 37%.

Regarding `O=C(O)CCCSc1nc2ccccc2n1Cc1ccc(Cl)cc1Cl` [Example 64, 4-[1 (2,4-Dichlorobenzyl)benzimidazol-2-yl]mercaptobutanoic acid], the inhibition at 10 µM came to 97% and the inhibition at 0.1 µM was 34%.

For `O=C(O)CCCSc1nc2cc(F)ccc2n1Cc1ccc(Cl)cc1` [Example 65, 4-[1-(4-Chlorobenzyl)-5 fluorobenzimidazol-2-yl]mercaptobutanoic acid], the inhibition at 10 µM is 93% and the inhibition at 0.1 µM stood at 8%.

As for `Cc1ccc(Cn2c(CC(C)(C)CC(=O)O)nc3ccccc32)cc1` [Example 66, 4-[1-(4-Methylbenzyl)benzimidazol-2-yl]-3,3-dimethylbutanoic acid], the inhibition at 10 µM is 100% and the inhibition at 0.1 µM came to 52%.

As to `CC(C)(CC(=O)O)Cc1nc2ccccc2n1Cc1ccc(F)cc1` [Example 67], the inhibition at 10 µM was found to be 100% and the inhibition at 0.1 µM worked out at 66%.

`COc1ccc(Cn2c(CC(C)(C)CC(=O)O)nc3ccccc32)cc1` [Example 68, 4-[1-(4-Methoxybenzyl)benzimidazol-2-yl]-3,3-dimethybutanoic acid]: the inhibition at 10 µM amounted to 100%, the inhibition at 0.1 µM turned out to be 89% and the Ki is 31 nM.

`CC(C)(CC(=O)O)Cc1nc2ccccc2n1Cc1ccc(Br)cc1` [Example 69, 4-[1-(4 Bromobenzyl)benzimidazol-2-yl]-3,3-dimethylbutanoic acid]: the inhibition at 10 µM came to 96%, the inhibition at 0.1 µM came out at 86% and the inhibitory constant (Ki) came to 15.8 nM.

With `CC(C)(CC(=O)O)Cc1nc2cc(Cl)c(Cl)cc2n1Cc1ccc(Cl)cc1` [Example 70, 4-[1-(4-Chlorobenzyl)-5,6-dichlorobenzimidazol-2-yl]-3,3-dimethylbutanoic acid], the inhibition at 10 µM was determined as 100% and the inhibition at 0.1 µM came to 14%.

For `CC(C)(CC(=O)O)Cc1nc2ccccc2n1Cc1cccc(C(F)(F)F)c1` [Example 71, 4-[1-(3-Trifluoromethylbenzyl)benzimidazol-2-yl]-3,3-dimethylbutanoic acid], the inhibition at 10 µM stood at 100% and the inhibition at 0.1 µM is 49%.

As to `O=C(O)CC1(Cc2nc3cc(F)ccc3n2Cc2ccc(Cl)cc2)CCCC1` [Example 72, [10[1-(4-Chlorobenzyl)-5-fluorobenzimidazol-2-yl]-methylcyclopent-1 yl]acetic acid], the inhibition at 10 µM came out at 100%, the inhibition at 0.1 µM came out at 71% and the inhibition constant Ki was 42.3 nM.

For the molecule `O=C(O)CC1(Cc2nc3cc(F)ccc3n2Cc2ccc(Cl)cc2)CCCCC1` [Example 73, [1-[1-(4-Chlorobenzyl)-5-fluorobenzimidazol-2-yl]methylcyclohex-1-yl]aceticacid], the inhibition at 10 µM was 98%, the inhibition at 0.1 µM stood at 0% and the Ki came to 807 nM.

As for `CC(C)(CC(=O)O)Cc1nc2cc(F)ccc2n1Cc1ccc(Cl)cc1` [Example 74, 4-[1-(4-Chlorobenzyl)-5-fluorobenzimidazol-2-yl]-3,3-dimethylbutanoic acid], the inhibition at 10 µM was determined as 100%, the inhibition at 0.1 µM was found to be 94% and the Ki came to 6.3 nM.

`CCC(C)(CC(=O)O)Cc1nc2ccccc2n1Cc1ccc(Cl)cc1` (centres unmarked) [Example 75, 4-[1-(4-Chlorobenzyl)benzimidazol-2-yl]-3-methyl-3-ethylbutanoic acid]: the inhibition at 10 µM was 100% and the inhibition at 0.1 µM was 57%.

Regarding `CC(C)(CC(=O)O)Cc1nc2ccccc2n1Cc1ccc(Br)cc1F` [Example 76, 4-[1-(2-Fluoro-4-bromobenzyl)benzimidazol-2-yl]-3,3-dimethylbutanoic acid], the inhibition at 10 µM is 99%, the inhibition at 0.1 µM was found to be 88% and the Ki came out at 11.4 nM.

On to `CC(C)(CC(=O)O)Cc1nc2ccccc2n1Cc1ccc(Cl)cc1` [Example 77, 4-[1-(4-Chlorobenzyl)benzimidazol-2-yl]-3,3-dimethylbutanoic acid], for which the inhibition at 10 µM turned out to be 100%, the inhibition at 0.1 µM was 85% and the Ki was 31 nM.

Turning to `COc1ccc2c(c1)nc(CC(C)(C)CC(=O)O)n2Cc1ccc(Cl)cc1` [Example 78, 4-[1-(4-Chlorobenzyl)-5-methoxybenzimidazol-2-yl]-3,3-dimethylbutanoic acid], the inhibition at 10 µM is 100% and the inhibition at 0.1 µM is 44%.

In the case of `CC(C)(CC(=O)O)Cc1nc2cc(Cl)ccc2n1Cc1ccc(Cl)cc1` [Example 79, 4-[1 (4-Chlorobenzyl)-5-chlorobenzimidazol-2-yl]-3,3-dimethylbutanoic acid], the inhibition at 10 µM is 99%, the inhibition at 0.1 µM is 74% and the Ki was 23.2 nM.

Turning to `CC(C)(CC(=O)O)Cc1nc2cc(F)ccc2n1Cc1ccc(Cl)c(Cl)c1` [Example 80, 4-[1-(3,4-Dichlorobenzyl)-5-fluorobenzimidazol-2-yl]-3,3-dimethylbutanoic acid], the inhibition at 10 µM amounted to 92%, the inhibition at 0.1 µM worked out at 89% and the inhibitory constant (Ki) was determined as 6.02 nM.

Take `CC(C)(CC(=O)O)Cc1nc2ccccc2n1Cc1ccc([N+](=O)[O-])cc1` [Example 81, 4-[1-(4-Nitrobenzyl)benzimidazol-2-yl]-3,3-dimethylbutanoic acid]: the inhibition at 10 µM turned out to be 100%, the inhibition at 0.1 µM came to 83% and the inhibition constant Ki turned out to be 60.1 nM.
